Experiments:
rgRSV224 virus = test: Antiviral activity: inhibition of rgRSV224 (GFP-expressing RSV) replication in HeLa cells; format: cell-based, respiratory syncytial virus; conditions: human respiratory syncytial virus, HeLa, 72 h, read-out: RSV-wt_pEC50, rgRSV224 (MOI=0.02) in HeLa cells, GFP expression three days post-virus exposure
Summary of the method: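 HeLa cells infected with GFP-expressing rgRSV224 at MOI 0.02 alongside 4-fold compound dilutions in duplicate (0.5% DMSO). Incubated 3 days at 37 °C; EC50 taken as 50% inhibition of GFP expression by laser microscopy. CC50 measured in parallel uninfected cells by ATP content after 3 days; SI = CC50/EC50.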

Compound	EC50 (rgRSV224 virus)	melting point
CS(=O)(=O)CCCn1c(CN2C(=O)C3(CCN(C(=O)C4CC4)CC3)c3ccncc32)nc2cc(Cl)ccc21 [Compound 90, 1′-({5-Chloro-1-[3-(methylsulfonyl)propyl]-1H-benzimidazol-2-yl}methyl)-1-(cyclopropylcarbonyl)spiro[piperidine-4,3′-pyrrolo[2,3-c]pyridin]-2′(1′H)-one]	0.0468 nM	208.64 °C
CS(=O)(=O)N1CC2(C1)C(=O)N(Cc1nc3cc(Cl)ccc3n1CCCC#N)c1ccccc12 [Compound 94, 4-(5-Chloro-2-{[1-(methylsulfonyl)-2′-oxospiro[azetidine-3,3′-indol]-1′(2′H)-yl]methyl}-1H-benzimidazol-1-yl)-butanenitrile]	0.129 nM	214.11 °C
CS(=O)(=O)CCCn1c(CN2C(=O)C3(CCN(S(=O)(=O)c4cccs4)CC3)c3ccccc32)nc2cc(Cl)ccc21 [Compound 102]	1.45 nM	233.06 °C
CNC(=O)OC1CC2(C1)C(=O)N(Cc1nc3cc(Cl)ccc3n1CCCS(C)(=O)=O)c1ccccc12 [Compound 104, (1R,3R)-1′-((5-chloro-1-(3-(methylsulfonyl)propyl)-1H-benzo[d]imidazol-2-yl)methyl)-2′-oxospiro[cyclobutane-1,3′-indoline]-3-yl methylcarbamate]	0.0229 nM	204.17 °C
CS(=O)(=O)N1CCC2(CC1)C(=O)N(Cc1cc3cc(Cl)ccc3n1CCCC#N)c1cnccc12 [Compound 105, 4-(5-Chloro-2-{[1-(methylsulfonyl)-2′-oxospiro[piperidine-4,3′-pyrrolo[2,3-c]pyridin]-1′(2′H)-yl]methyl}-1H-indol-1-yl)butanenitrile]	0.0832 nM	145.3 °C
CC(=O)NS(=O)(=O)N1CCC2(CC1)C(=O)N(Cc1cc3cc(Cl)ccc3n1CCCCF)c1cnccc12 [Compound 114, N-[(1′-{[5-Chloro-1-(4-fluorobutyl)-1H-indol-2-yl]methyl}-2′-oxo-1′,2′-dihydro-1H-spiro[piperidine-4,3′-pyrrolo[2,3-c]-pyridin]-1-yl)sulfonyl]acetamide]	0.427 nM	236.92 °C
CC(=O)NS(=O)(=O)N1CC2(C1)C(=O)N(Cc1cc3cc(Cl)ccc3n1CCCC#N)c1ccccc12 [Compound 117, N-[(1′-{[5-Chloro-1-(3-cyanopropyl)-1H-indol-2-yl]methyl}-2′-oxo-1′,2′-dihydro-1H-spiro[azetidine-3,3′-indol]-1-yl)sulfonyl]acetamide]	10 nM	182.85 °C
CC(C)NC(=O)N[C@H]1C[C@]2(C1)C(=O)N(Cc1nc3cc(Cl)ccc3n1CCCC#N)c1ccccc12 [Compound 143, 1-((1s,3s)-1′-((5-chloro-1-(3-cyanopropyl)-1H-benzo[d]imidazol-2-yl)methyl)-2′-oxospiro[cyclobutane-1,3′-indolin]-3-yl)-3-isopropylurea]	3.31 nM	242.49 °C
CC(C)NC(=O)N[C@H]1C[C@@]2(C1)C(=O)N(Cc1nc3cc(Cl)ccc3n1CCCC#N)c1ccccc12 [Compound 144, 1-((1r,3r)-1′-((5-chloro-1-(3-cyanopropyl)-1H-benzo[d]imidazol-2-yl)methyl)-2′-oxospiro[cyclobutane-1,3′-indolin]-3-yl)-3-isopropylurea]	0.229 nM	219.9 °C
CC(=O)N[C@H]1C[C@]2(C1)C(=O)N(Cc1nc3cc(Cl)ccc3n1CCCC#N)c1ccccc12 [Compound 145, N-((1s,3s)-1′-((5-chloro-1-(3-cyanopropyl)-1H-benzo[d]imidazol-2-yl)methyl)-2′-oxospiro[cyclobutane-1,3′-indolin]-3-yl)acetamide]	0.302 nM	250.91 °C
CC(=O)N[C@H]1C[C@@]2(C1)C(=O)N(Cc1nc3cc(Cl)ccc3n1CCCC#N)c1ccccc12 [Compound 146, N-((1r,3r)-1′-((5-chloro-1-(3-cyanopropyl)-1H-benzo[d]imidazol-2-yl)methyl)-2′-oxospiro[cyclobutane-1,3′-indolin]-3-yl)acetamide]	0.501 nM	194.77 °C
N#CCCCn1c(CN2C(=O)C3(CCN(C(=O)OCCO)CC3)c3ccncc32)cc2cc(Cl)ccc21 [Compound 147, 2-Hydroxyethyl 1′-{[5-chloro-1-(3-cyanopropyl)-1H-indol-2-yl]methyl}-2′-oxo-1′,2′-dihydro-1H-spiro[piperidine-4,3′-pyrrolo[2,3-c]pyridine]-1-carboxylate]	0.055 nM	144.55 °C
CC(C)(O)C(=O)N1CCC2(CC1)C(=O)N(Cc1nc3cc(Cl)ccc3n1CCCCO)c1cnccc12 [Compound 164, 1′-{[5-Chloro-1-(4-hydroxybutyl)-1H-benzimidazol-2-yl]methyl}-1-(2-hydroxy-2-methylpropanoyl)spiro[piperidine-4,3′-pyrrolo[2,3-c]pyridin]-2′(1′H)-one]	0.126 nM	191.87 °C
CC(C)(O)C(=O)N1CC2(C1)C(=O)N(Cc1cc3cc(Cl)ccc3n1CCCCO)c1ccccc12 [Compound 166, 1′-{[5-Chloro-1-(4-hydroxybutyl)-1H-indol-2-yl]methyl}-1-(2-hydroxy-2-methylpropanoyl)spiro[azetidine-3,3′-indol]-2′(1′H)-one]	0.537 nM	157.11 °C
CC(C)(O)C(=O)N1CCC2(CC1)C(=O)N(Cc1nc3cc(Cl)ccc3n1CCCCF)c1cnccc12 [Compound 169, 1′-{[5-Chloro-1-(4-fluorobutyl)-1H-benzimidazol-2-yl]methyl}-1-(2-hydroxy-2-methylpropanoyl)spiro[piperidine-4,3′-pyrrolo[2,3-c]pyridin]-2′(1′H)-one]	0.0275 nM	222.72 °C
CC(=O)NS(=O)(=O)N1CCC2(CC1)C(=O)N(Cc1cc3cc(Cl)ccc3n1CCCC#N)c1cnccc12 [Compound 172, N-[(1′-{[5-Chloro-1-(3-cyanopropyl)-1H-indol-2-yl]methyl}-2′-oxo-1′,2′-dihydro-1H-spiro[piperidine-4,3′-pyrrolo[2,3-c]pyridin]-1-yl)sulfonyl]acetamide]	0.0661 nM	230.52 °C
N#CCCCn1c(CN2c3ccccc3[C@]3(C[C@@H](O)C3)C2=O)nc2cc(Cl)ccc21 [Compound 176, 4-(5-chloro-2-(((1r,3r)-3-hydroxy-2′-oxospiro[cyclobutane-1,3′-indolin]-1′-yl)methyl)-1H-benzo[d]imidazol-1-yl)butanenitrile]	0.363 nM	217.25 °C
COC(=O)N1CCC2(CC1)C(=O)N(Cc1nc3cc(Cl)ccc3n1CCCCF)c1cnccc12 [Compound 178, Methyl 1′-{[5-chloro-1-(4-fluorobutyl)-1H-benzimidazol-2-yl]methyl}-2′-oxo-1′,2′-dihydro-1H-spiro[piperidine-4,3′-pyrrolo[2,3-c]pyridine]-1-carboxylate]	0.0288 nM	182.68 °C
CC(C)OC(=O)N1CCC2(CC1)C(=O)N(Cc1nc3cc(Cl)ccc3n1CCCCF)c1cnccc12 [Compound 179, 1-Methylethyl 1′-{[5-chloro-1-(4-fluorobutyl)-1H-benzimidazol-2-yl]methyl}-2′-oxo-1′,2′-dihydro-1H-spiro[piperidine-4,3′-pyrrool[2,3-c]pyridine]-1-carboxylate]	0.0437 nM	198.92 °C
N#CCCCn1c(CN2C(=O)C3(CN(S(=O)(=O)C4CC4)C3)c3ccccc32)nc2cc(Cl)ccc21 [Compound 180, 4-(5-Chloro-2-{[1-(cyclopropylsulfonyl)-2′-oxospiro[azetidine-3,3′-indol]-1′(2′H)-yl]methyl}-1H-benzimidazol-1-yl)butanenitrile]	0.117 nM	190.42 °C
N#CCCCn1c(CN2C(=O)C3(CCN(C(=O)C(O)(C(F)(F)F)C(F)(F)F)CC3)c3ccncc32)nc2cc(Cl)ccc21 [Compound 181, 4-[5-Chloro-2-({2′-oxo-1-[3,3,3-trifluoro-2-hydroxy-2-(trifluoromethyl)propanoyl]spiro[piperidine-4,3′-pyrrolo[2,3-c]pyridin]-1′(2′H)-yl}methyl)-1H-benzimidazol-1-yl]butanenitrile]	0.251 nM	240.41 °C
CC(C)(O)C(=O)N1CC2(C1)C(=O)N(Cc1nc3cc(Cl)ccc3n1CCCCF)c1ccccc12 [Compound 183, 1′-{[5-Chloro-1-(4-fluorobutyl)-1H-benzimidazol-2-yl]methyl}-1-(2-hydroxy-2-methylpropanoyl)spiro[azetidine-3,3′-indol]-2′(1′H)-one]	0.0759 nM	219.71 °C

Reference: US9617289B2, “RSV antiviral compounds” (JANSSEN R&D IRELAND, priority 2012, dated 2017)
